{
  "source": "paper PMC3665348",
  "about": "(Biochemical pharmacology, 2012)",
  "target": "T1, CYP1A1 (Homo sapiens, UniProt P04798)",
  "T1 sequence (P04798 1-512)": "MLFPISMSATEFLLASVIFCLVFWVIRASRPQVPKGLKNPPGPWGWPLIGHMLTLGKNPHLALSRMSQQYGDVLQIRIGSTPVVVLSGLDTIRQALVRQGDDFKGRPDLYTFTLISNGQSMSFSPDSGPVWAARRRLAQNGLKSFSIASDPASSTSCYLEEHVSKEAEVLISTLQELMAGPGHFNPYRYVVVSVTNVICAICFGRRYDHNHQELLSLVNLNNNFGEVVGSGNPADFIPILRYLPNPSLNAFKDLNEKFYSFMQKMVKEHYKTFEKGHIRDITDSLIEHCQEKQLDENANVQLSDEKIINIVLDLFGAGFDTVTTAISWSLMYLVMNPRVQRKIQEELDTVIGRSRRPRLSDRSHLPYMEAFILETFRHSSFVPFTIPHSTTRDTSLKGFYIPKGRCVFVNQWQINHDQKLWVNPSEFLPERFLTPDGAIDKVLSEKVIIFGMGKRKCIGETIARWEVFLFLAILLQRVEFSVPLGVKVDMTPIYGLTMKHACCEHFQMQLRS",
  "assay": "procainamide hydroxylamine",
  "format": "biochemical",
  "settings": "20 μM procainamide, NADPH 2 mM, MgCl2 2 mM, 20 mM PBS pH 7.4, 37°C, 30 min",
  "data": [
    {"smiles": "CCN(CC)CCNC(=O)c1ccc(N)cc1", "note": "[I, Procainamide]", "values": [
      {"measurement": "procainamide hydroxylamine (VI) formation, UPLC-ESI-QTOFMS", "value": "CYP1A1 also had some activity."}
    ]}
  ]
}
